Data taken from article PMC10029296, “Glepaglutide, a novel glucagon-like peptide-2 agonist, has anti-inflammatory and mucosal regenerative effects in an experimental model of inflammatory bowel disease in rats” (BMC Gastroenterology, 2023).
pEC50: −log10 of the molar value. No end group written: not given here.

Columns and labels:
male Wistar rats [1] = experiment: INDO-induced small intestinal inflammation model validation study (INDO dose finding); settings: data not shown
male Wistar rats [2] = settings: rat, in vivo
Method: In this study, a dose of INDO 7 mg/kg was used based on the results of an INDO-induced small intestinal inflammation model validation study conducted by Zealand Pharma.

hGLP-2R = target: T1, hGLP-2R (Homo sapiens, UniProt O95838, D470N); experiment: cAMP accumulation assay in HEK293 cells stably expressing hGLP-2R (AlphaScreen)
T1 sequence (O95838 1-553 D470N): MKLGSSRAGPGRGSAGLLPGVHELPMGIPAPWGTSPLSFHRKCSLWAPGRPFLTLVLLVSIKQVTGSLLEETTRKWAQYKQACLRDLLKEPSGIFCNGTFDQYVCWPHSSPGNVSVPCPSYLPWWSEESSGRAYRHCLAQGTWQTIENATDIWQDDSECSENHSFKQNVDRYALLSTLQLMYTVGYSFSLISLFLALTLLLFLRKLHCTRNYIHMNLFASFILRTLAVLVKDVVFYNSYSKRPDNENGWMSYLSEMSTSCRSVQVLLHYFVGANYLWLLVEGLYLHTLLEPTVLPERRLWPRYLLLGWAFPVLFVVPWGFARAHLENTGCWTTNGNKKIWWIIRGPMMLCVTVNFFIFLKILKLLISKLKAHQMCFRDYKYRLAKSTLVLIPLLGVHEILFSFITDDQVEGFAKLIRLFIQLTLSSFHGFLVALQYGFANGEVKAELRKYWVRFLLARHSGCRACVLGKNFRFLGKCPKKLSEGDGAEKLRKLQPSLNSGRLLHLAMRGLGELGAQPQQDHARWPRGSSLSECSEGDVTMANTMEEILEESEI
Method: For assaying, HEK293 cells stably expressing hGLP-2R were seeded at 30,000 cells per well in 96-well microtiter plates coated with 0.01% poly-L-lysine. […] The reaction was stopped by decanting off the compound/buffer and replacing it with 80 µl lysis/detection buffer consisting of deionized water supplemented with 0.1% w/v BSA (Sigma-Aldrich A9430), 5 mM HEPES, and 0.3% v/v Tween-20 (Sigma-Aldrich P7949).
Compound potency (EC50) and maximal effect (Emax) values were estimated by computer-aided curve fitting using a three-parameter logistic non-linear model.

naive Wistar rats = experiment: Intestinotrophic effect in naive rats; type: in vivo, rat; settings: 80 and 400 nmol/kg SC once daily for 7 days, vs vehicle, 400 vs 80 nmol/kg p < 0.05
Method: Glepaglutide (80 nmol/kg or 400 nmol/kg, SC, once daily) or vehicle (SC, once daily) were administered for 14 days to naive Wistar rats to assess the intestinotrophic properties of the peptide, before initiating studies in the small intestinal inflammation model (Fig. 1A). Overall, 18 rats were included per arm, with 6 rats each sacrificed on day 0, day 7, and day 14.
Animals were anesthetized with carbon dioxide and then sacrificed by cervical dislocation. The small intestine (from the pylorus to the ileocecal junction) was dissected away from the abdomen and the surrounding mesenteric fat. Small intestinal length was measured after weighing the small intestine with a 1 g weight to obtain uniform tension. Thereafter, the small intestine was divided into two segments of equal length labeled as the jejunum and ileum. Segments were gently flushed with 0.9% saline, padded dry, and weighed. A 5 cm biopsy was collected 10 cm distal from the start of the jejunal segment, and another 5 cm biopsy was collected 10 cm distal from the start of the ileal segment. […]
Data are presented as mean ± standard error of the mean, unless otherwise stated. The intestinal growth-promoting effect of glepaglutide in naive rats was determined using a two-way analysis of variance (ANOVA, dose and time), and significant findings were further analyzed with the Bonferroni post hoc test. […]

[3] = tested on: Wistar rats with INDO-induced small intestinal inflammation; experiment: INDO-induced small intestinal inflammation model, co- and post-treatment; type: in vivo, rat; settings: 400 nmol/kg SC twice daily
Method: Two treatment regimens were studied: glepaglutide (400 nmol/kg, SC, twice daily) was administered in a co-treatment regimen (Fig. 1B – administered at inflammation onset and throughout), and a post-treatment regimen (Fig. 1C – administered after inflammation onset and throughout).
Two groups of controls, INDO controls (administered with INDO and treated with vehicle) and controls (administered with saline solution and treated with vehicle), were included in the studies (Fig. 1B and C). Groups of rats (n = 7–15) were sacrificed during the active inflammation phase (2–3 days after inflammation onset), on day 3 for the co-treatment regimen (Fig. 1B) and on day 4 for the post-treatment regimen (Fig. 1C), to determine small intestinal length, jejunal and ileal mass, and α-1-acid glycoprotein (α-1-AGP) and myeloperoxidase (MPO) concentrations in the jejunum and ileum. Equivalent groups of rats were sacrificed during the body weight recovery phase (14–15 days after inflammation onset), on day 14 for the co-treatment regimen (Fig. 1B), and on day 16 for the post-treatment regimen (Fig. 1C), to determine jejunal and ileal mass. Body weight and survival were recorded daily.
Animals were anesthetized with carbon dioxide and then sacrificed by cervical dislocation. The small intestine (from the pylorus to the ileocecal junction) was dissected away from the abdomen and the surrounding mesenteric fat. Small intestinal length was measured after weighing the small intestine with a 1 g weight to obtain uniform tension. Thereafter, the small intestine was divided into two segments of equal length labeled as the jejunum and ileum. Segments were gently flushed with 0.9% saline, padded dry, and weighed. A 5 cm biopsy was collected 10 cm distal from the start of the jejunal segment, and another 5 cm biopsy was collected 10 cm distal from the start of the ileal segment. The biopsies were immediately frozen in liquid nitrogen and stored at -80 °C for later analysis of concentrations of α-1-AGP and MPO using commercially available enzyme-linked immunosorbent assay kits (Life Diagnostics [2510–2] and Hycult Biotech [HK 210], respectively). The preparation method was validated in house.
Data are presented as mean ± standard error of the mean, unless otherwise stated. The intestinal growth-promoting effect of glepaglutide in naive rats was determined using a two-way analysis of variance (ANOVA, dose and time), and significant findings were further analyzed with the Bonferroni post hoc test. In the INDO model, a t-test was used to compare INDO control-treated rats with vehicle control-treated rats, and INDO control-treated rats with glepaglutide-treated rats. A p value of ≤ 0.05 was considered statistically significant. Grubbs’ test was used to test for outliers in the section, and outliers were not included in the analyses. Differences in survival between different groups were compared by the Cox–Mantel log-rank test.

[4] = tested on: patients with moderate to severe CD; settings: 8 weeks of treatment, failed to reach statistical significance; cited from earlier work
From the text: Use of GLP-2 agonists for the treatment of IBD is not a novel concept. The ability of teduglutide to induce remission or to reduce the Crohn’s disease activity index (CDAI) score by at least 100 points after 8 weeks of treatment was examined in patients with moderate to severe CD [37]. […] We speculate that the study was underpowered and that the assessment of mucosal healing, rather than the CDAI, would have been a better endpoint to assess the effect of ...

[5] = co-treatment, body weight recovery phase (day 14), vs INDO controls
[6] = post-treatment, active inflammation phase (day 4), ELISA, vs INDO controls, p < 0.01
[7] = post-treatment, body weight recovery phase (day 16), vs INDO controls

Molecule: COc1ccc2c(c1)c(CC(=O)O)c(C)n2C(=O)c1ccc(Cl)cc1 [INDO, indomethacin]
- Mortality, INDO 15 mg/kg (male Wistar rats [1]): exaggerated mortality
- Induction of inflammation, INDO 3 mg/kg (male Wistar rats [2]): insufficient for inducing inflammation
- Induction of macroscopic features of inflammation, INDO 7 mg/kg (male Wistar rats [2]): sufficient and appropriate

Molecule: HGEGTFSSELATILDALAARDFIAWLIATKITDKKKKKK-NH2 (C-terminus assumed) [Glepaglutide]
- Emax ± SEM, agonism of hGLP-2R (cAMP accumulation) (hGLP-2R; response normalized to a saturating concentration of hGLP-2 and baseline cAMP of unstimulated receptor, mean ± SEM, n = 5): 102 ± 3.7
- Small intestinal mass, day 7 (naive Wistar rats): dose-dependently increased
- Ileal MPO concentration, co-treatment ([3]; co-treatment, active inflammation phase (day 3), ELISA, vs INDO controls, p < 0.001): significantly decreased
- Ileal α-1-AGP concentration, co-treatment ([3]; co-treatment, active inflammation phase (day 3), ELISA, vs INDO controls, p < 0.05): significantly decreased
- Small intestinal shortening (small intestinal length), co-treatment ([3]; co-treatment, active inflammation phase (day 3), vs INDO controls, p < 0.001): reversed
- Ileal mass, co-treatment, active inflammation phase ([3]; co-treatment, active inflammation phase, vs INDO controls, p < 0.05): significantly increased
- Ileal mass, co-treatment, body weight recovery phase [3, 5]: significantly increased
- Jejunal mass, co-treatment, body weight recovery phase [3, 5]: significantly increased
- Acute body weight loss, co-treatment ([3]; co-treatment, vs INDO controls, p < 0.001, data not shown): significantly decreased
- Ileal α-1-AGP concentration, post-treatment [3, 6]: significantly decreased
- Jejunal α-1-AGP concentration, post-treatment [3, 6]: significantly decreased
- Jejunal MPO concentration, post-treatment ([3]; post-treatment, active inflammation phase (day 4), ELISA, vs INDO controls, p < 0.05): significantly decreased
- Small intestinal shortening (small intestinal length), post-treatment ([3]; post-treatment, active inflammation phase (day 4), vs INDO controls, p = 0.05): significantly reversed
- Ileal mass, post-treatment, body weight recovery phase [3, 7]: significantly increased
- Jejunal mass, post-treatment, body weight recovery phase [3, 7]: significantly increased
- Acute body weight loss, post-treatment ([3]; post-treatment, data not shown): no effect

Molecule: HGEGTFSSELATILDALAARDFIAWLIATKITDKKKKKK-NH2 [Glepaglutide]
- pEC50 (hGLP-2R; SEM): 10.03
- Survival ([3]; co- and post-treatment regimens, Cox–Mantel log-rank test): no effect

Molecule: [Gly^2]GLP-2 [teduglutide]
- Effect on CDAI score [4]: positive, dose-dependent effect
